US20250122183A1 (Pfizer Inc., priority 2023, published 2025)
Where two headings read alike, the source gives them in different places.

How the values were obtained:
Type in all cases: biochemical
[1] = target: KAT5 Full length enzyme (Homo sapiens (Human), UniProt Q92993); assay: KAT5 assay (SAMDI-MS acetylation of H4 1-21 peptide); details: Morrison equation fit; replicate number in parentheses; read-out: KAT5 Ki (nM) (replicate number)
[2] = target: KAT8 Full length enzyme (Homo sapiens (Human), UniProt Q9H7Z6); assay: KAT8 assay (SAMDI-MS acetylation of H3 1-21 peptide); details: replicate number in parentheses
[3] = target: KAT7+JADE1+EAF6+ING5 4 protein complex (Homo sapiens (Human), UniProt O95251); assay: KAT7 JADE1 assay (SAMDI-MS acetylation of H3 1-21 peptide); details: replicate number in parentheses
[4] = target: KAT6A Full length enzyme (Homo sapiens (Human), UniProt Q92794); assay: KAT6A assay (SAMDI-MS acetylation of H3 1-21 peptide); details: replicate number in parentheses
[5] = Morrison equation fit, read-out: KAT8 Ki (nM) (replicate number)
[6] = Morrison equation fit, read-out: KAT7 JADE1 Ki (nM) (replicate number)
[7] = Morrison equation fit, read-out: KAT6A Ki (nM) (replicate number)
[8] = read-out: KAT8 Ki (nM) (replicate)
[9] = read-out: KAT7 JADE1 Ki (nM) (replicate)
[10] = read-out: KAT6A Ki (nM) (replicate)

Sequence of KAT5 Full length enzyme (Q92993 whole entry): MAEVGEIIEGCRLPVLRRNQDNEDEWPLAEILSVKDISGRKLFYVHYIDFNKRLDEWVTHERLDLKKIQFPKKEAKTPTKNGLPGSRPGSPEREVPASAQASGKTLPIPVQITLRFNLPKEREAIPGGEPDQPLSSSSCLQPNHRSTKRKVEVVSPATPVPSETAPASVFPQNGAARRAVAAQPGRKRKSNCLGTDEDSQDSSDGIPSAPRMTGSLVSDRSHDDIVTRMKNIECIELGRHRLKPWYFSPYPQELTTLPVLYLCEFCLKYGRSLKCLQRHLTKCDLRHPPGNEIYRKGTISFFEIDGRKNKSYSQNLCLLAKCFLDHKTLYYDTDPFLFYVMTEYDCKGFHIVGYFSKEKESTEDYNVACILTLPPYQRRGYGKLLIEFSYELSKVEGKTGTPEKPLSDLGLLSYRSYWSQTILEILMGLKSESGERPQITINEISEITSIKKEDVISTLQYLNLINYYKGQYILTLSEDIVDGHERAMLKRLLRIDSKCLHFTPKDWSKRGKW
Sequence of KAT8 Full length enzyme (Q9H7Z6 whole entry): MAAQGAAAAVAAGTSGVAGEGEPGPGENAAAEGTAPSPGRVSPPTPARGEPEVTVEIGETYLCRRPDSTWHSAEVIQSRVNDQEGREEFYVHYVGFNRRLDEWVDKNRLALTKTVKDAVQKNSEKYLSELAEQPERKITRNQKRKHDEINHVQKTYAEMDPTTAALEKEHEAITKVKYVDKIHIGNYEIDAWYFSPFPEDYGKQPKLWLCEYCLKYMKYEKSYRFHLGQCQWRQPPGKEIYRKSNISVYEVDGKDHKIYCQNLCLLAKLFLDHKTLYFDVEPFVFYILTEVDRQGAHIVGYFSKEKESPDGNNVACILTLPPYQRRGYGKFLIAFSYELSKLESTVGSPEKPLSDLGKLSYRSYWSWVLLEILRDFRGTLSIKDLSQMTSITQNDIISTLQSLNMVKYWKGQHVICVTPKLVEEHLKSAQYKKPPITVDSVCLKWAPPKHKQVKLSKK
Sequence of KAT6A Full length enzyme (Q92794 other isoform, or with tags, fused parts or gaps): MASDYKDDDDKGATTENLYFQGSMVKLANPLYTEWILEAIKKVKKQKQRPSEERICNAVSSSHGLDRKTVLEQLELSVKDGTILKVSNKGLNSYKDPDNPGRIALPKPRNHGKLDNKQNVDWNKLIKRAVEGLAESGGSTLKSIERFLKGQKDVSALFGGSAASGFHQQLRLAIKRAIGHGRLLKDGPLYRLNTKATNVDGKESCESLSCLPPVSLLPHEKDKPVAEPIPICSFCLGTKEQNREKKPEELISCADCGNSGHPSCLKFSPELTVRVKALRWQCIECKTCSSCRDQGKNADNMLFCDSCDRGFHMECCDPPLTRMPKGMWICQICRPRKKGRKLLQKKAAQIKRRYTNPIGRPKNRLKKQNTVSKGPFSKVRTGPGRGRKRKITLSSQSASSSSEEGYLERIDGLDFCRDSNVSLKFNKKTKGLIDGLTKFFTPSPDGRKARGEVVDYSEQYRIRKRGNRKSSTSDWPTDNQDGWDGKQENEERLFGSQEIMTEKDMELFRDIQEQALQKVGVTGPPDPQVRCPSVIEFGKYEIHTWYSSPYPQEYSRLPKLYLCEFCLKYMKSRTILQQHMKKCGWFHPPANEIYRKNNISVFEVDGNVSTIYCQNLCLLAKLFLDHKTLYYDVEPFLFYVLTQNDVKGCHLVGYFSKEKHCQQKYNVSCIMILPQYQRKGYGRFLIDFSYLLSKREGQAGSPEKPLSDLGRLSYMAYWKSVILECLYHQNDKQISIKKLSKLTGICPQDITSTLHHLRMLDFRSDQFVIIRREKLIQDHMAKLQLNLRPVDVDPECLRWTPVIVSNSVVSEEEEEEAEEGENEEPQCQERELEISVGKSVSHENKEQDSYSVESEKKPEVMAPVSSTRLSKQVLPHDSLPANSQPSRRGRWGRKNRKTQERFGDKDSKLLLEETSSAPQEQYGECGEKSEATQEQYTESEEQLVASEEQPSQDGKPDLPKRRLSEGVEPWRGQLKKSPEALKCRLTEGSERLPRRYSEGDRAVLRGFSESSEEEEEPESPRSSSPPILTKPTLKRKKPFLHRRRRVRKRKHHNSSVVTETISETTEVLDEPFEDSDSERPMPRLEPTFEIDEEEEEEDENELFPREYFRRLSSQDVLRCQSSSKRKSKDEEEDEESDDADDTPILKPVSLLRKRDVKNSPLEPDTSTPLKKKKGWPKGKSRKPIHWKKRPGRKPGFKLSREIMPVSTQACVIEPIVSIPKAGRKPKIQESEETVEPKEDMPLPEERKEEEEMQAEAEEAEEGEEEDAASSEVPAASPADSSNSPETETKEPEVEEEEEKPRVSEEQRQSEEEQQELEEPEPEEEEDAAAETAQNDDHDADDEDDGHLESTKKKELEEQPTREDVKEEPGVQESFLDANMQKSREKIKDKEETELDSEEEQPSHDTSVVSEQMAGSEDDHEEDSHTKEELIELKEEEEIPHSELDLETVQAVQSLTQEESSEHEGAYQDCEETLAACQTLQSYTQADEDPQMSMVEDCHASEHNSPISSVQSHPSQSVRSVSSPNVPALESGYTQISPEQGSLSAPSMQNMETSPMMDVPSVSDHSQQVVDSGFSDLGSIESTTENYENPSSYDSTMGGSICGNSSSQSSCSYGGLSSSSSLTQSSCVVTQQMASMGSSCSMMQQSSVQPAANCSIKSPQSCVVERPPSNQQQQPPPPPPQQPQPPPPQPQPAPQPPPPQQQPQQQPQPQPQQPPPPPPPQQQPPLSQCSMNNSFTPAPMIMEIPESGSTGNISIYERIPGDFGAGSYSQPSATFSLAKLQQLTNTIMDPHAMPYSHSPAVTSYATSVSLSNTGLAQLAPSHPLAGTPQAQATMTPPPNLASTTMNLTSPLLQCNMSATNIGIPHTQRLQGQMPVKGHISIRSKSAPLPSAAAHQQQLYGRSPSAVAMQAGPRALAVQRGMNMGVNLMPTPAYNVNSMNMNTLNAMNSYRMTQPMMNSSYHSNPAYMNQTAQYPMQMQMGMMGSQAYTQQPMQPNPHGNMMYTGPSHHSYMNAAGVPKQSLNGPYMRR

| Compound | Ki [1] | Ki [2, 5] | Ki [3, 6] | Ki [4, 7] | Ki [2, 8] | Ki [3, 9] | Ki [4, 10] |
| --- | --- | --- | --- | --- | --- | --- | --- |
| COc1cc2c(NS(=O)(=O)c3c(OC)cccc3OC)noc2cc1Nc1cc([C@H]2CC2(F)F)[nH]n1 (single isomer, unassigned) [Example 68, N-(6-{[5-(2,2-difluorocyclopropyl)-1H-pyrazol-3-yl]amino}-5-methoxy-1,2-benzoxazol-3-yl)-2,6-dimethoxybenzene-1-sulfonamide] | 39.3 nM | 4130 nM | 16.8 nM | 1.2 nM |  |  |  |
| COc1cc2c(NS(=O)(=O)c3c(OC)cccc3OC)noc2cc1Nc1cc([C@@H]2CC2(F)F)[nH]n1 (single isomer, unassigned) [Example 69, N-(6-{[5-(2,2-difluorocyclopropyl)-1H-pyrazol-3-yl]amino}-5-methoxy-1,2-benzoxazol-3-yl)-2,6-dimethoxybenzene-1-sulfonamide] | > 50000 nM | > 13000 nM | > 29000 nM | > 3290 nM |  |  |  |
| COc1cc2c(NS(=O)(=O)c3c(OC)cccc3OC)noc2cc1Nc1cc([C@H](C)O)n[nH]1 (single isomer, unassigned) [Example 86, N-(6-{[3-(1-hydroxyethyl)-1H-pyrazol-5-yl]amino}-5-methoxy-1,2-benzoxazol-3-yl)-2,6-dimethoxybenzene-1-sulfonamide] | 1280 nM | > 13000 nM | 552 nM | 8.9 nM |  |  |  |
| COc1cc2c(NS(=O)(=O)c3c(OC)cccc3OC)noc2cc1Nc1cc([C@@H](C)O)n[nH]1 (single isomer, unassigned) [Example 87, N-(6-{[3-(1-hydroxyethyl)-1H-pyrazol-5-yl]amino}-5-methoxy-1,2-benzoxazol-3-yl)-2,6-dimethoxybenzene-1-sulfonamide] | 1800 nM | > 13000 nM | 1230 nM | 23.5 nM |  |  |  |
| COc1cc2c(NS(=O)(=O)c3c(OC)cccc3OC)noc2cc1Nc1cc2n(n1)CC[C@@H]2C (single isomer, unassigned) [Example 89, 2,6-dimethoxy-N-(5-methoxy-6-{[4-methyl-5,6-dihydro-4H-pyrrolo[1,2-b]pyrazol-2-yl]amino}-1,2-benzoxazol-3-yl)benzene-1-sulfonamide] | 168 nM | > 12200 nM | 39.3 nM | 3 nM |  |  |  |
| COc1cc2c(NS(=O)(=O)c3c(OC)cccc3OC)noc2cc1Nc1cc2n(n1)CC[C@H]2C (single isomer, unassigned) [Example 90, 2,6-dimethoxy-N-(5-methoxy-6-{[4-methyl-5,6-dihydro-4H-pyrrolo[1,2-b]pyrazol-2-yl]amino}-1,2-benzoxazol-3-yl)benzene-1-sulfonamide] | 251 nM | > 13000 nM | 62.4 nM | 3.4 nM |  |  |  |
| COc1cc2c(NS(=O)(=O)c3c(OC)cc(C4CCCCO4)cc3OC)noc2cc1Nc1cc(C2CC2)n[nH]1 (single isomer, unassigned) [Example 143, N-{6-[(3-cyclopropyl-1 H-pyrazol-5-yl)amino]-5-methoxy-1,2-benzoxazol-3-yl}-2,6-dimethoxy-4-(oxan-2-yl)benzene-1-sulfonamide] | 44.3 nM | 436 nM | 9.6 nM | 1.1 nM |  |  |  |
| COc1cc2c(NS(=O)(=O)c3c(OC)cc(C4CCN(C)C4)cc3OC)noc2cc1Nc1cc(C2CC2)n[nH]1 (single isomer, unassigned) [Example 148, N-{6-[(3-cyclopropyl-1 H-pyrazol-5-yl)amino]-5-methoxy-1,2-benzoxazol-3-yl}-2,6-dimethoxy-4-(1-methylpyrrolidin-3-yl)benzene-1-sulfonamide] | 78.1 nM | 575 nM | 3.6 nM | 1.1 nM |  |  |  |
| COc1cc2c(NS(=O)(=O)c3c(OC)cc(C4CN(C)CCO4)cc3OC)noc2cc1Nc1cc(C2CC2)n[nH]1 (single isomer, unassigned) [Example 152, N-{6-[(3-cyclopropyl-1 H-pyrazol-5-yl)amino]-5-methoxy-1,2-benzoxazol-3-yl}-2,6-dimethoxy-4-(4-methylmorpholin-2-yl)benzene-1-sulfonamide] | 105 nM | 1160 nM | 4.1 nM | 0.7 nM |  |  |  |
| COc1cc2c(NS(=O)(=O)c3c(OC)cc(C4CN(C)CCO4)cc3OC)noc2cc1Nc1cc(C2CC2)n[nH]1 (single isomer, unassigned) [Example 153, N-{6-[(3-cyclopropyl-1 H-pyrazol-5-yl)amino]-5-methoxy-1,2-benzoxazol-3-yl}-2,6-dimethoxy-4-(4-methylmorpholin-2-yl)benzene-1-sulfonamide] | 17.4 nM | 571 nM | 5.7 nM | 0.8 nM |  |  |  |
| COc1cc2c(NS(=O)(=O)c3c(OC)cc(C4COCCN4C)cc3OC)noc2cc1Nc1cc(C2CC2)[nH]n1 (single isomer, unassigned) [Example 180, N-{6-[(5-cyclopropyl-1 H-pyrazol-3-yl)amino]-5-methoxy-1,2-benzoxazol-3-yl}-2,6-dimethoxy-4-(4-methylmorpholin-3-yl)benzene-1-sulfonamide] | 94.8 nM | 3370 nM | 6.5 nM | 1.7 nM |  |  |  |
| COc1cc2c(NS(=O)(=O)c3c(OC)cc(C(C)N4CC(F)C4)cc3OC)noc2cc1Nc1cc(C2CC2)[nH]n1 (single isomer, unassigned) [Example 209, N-{6-[(5-cyclopropyl-1 H-pyrazol-3-yl)amino]-5-methoxy-1,2-benzoxazol-3-yl}-4-[1-(3-fluoroazetidin-1-yl)ethyl]-2,6-dimethoxybenzene-1-sulfonamide] | 106 nM | 2400 nM | 7.7 nM | 1.4 nM |  |  |  |
| COc1cc2c(NS(=O)(=O)c3c(OC)cc(-c4ccn(C)n4)cc3OC)noc2cc1Nc1cc(C2CC2C)n[nH]1 (single isomer, unassigned) [Example 242, 2,6-dimethoxy-N-(5-methoxy-6-{[3-(2-methylcyclopropyl)-1 H-pyrazol-5-yl]amino}-1,2-benzoxazol-3-yl)-4-(1-methyl-1H-pyrazol-3-yl)benzene-1-sulfonamide] | 34 nM | 439 nM | 9.2 nM | 0.9 nM |  |  |  |
| COc1cc2c(NS(=O)(=O)c3cc4c(cc3OC)CCCC4)noc2cc1Nc1cc[nH]n1 [Example 05, 3-Methoxy-N-{5-methoxy-6-[(1H-pyrazol-3-yl)amino]-1,2-benzoxazol-3-yl}-5,6,7,8-tetrahydronaphthalene-2-sulfonamide] | 13.6 nM | 290 nM |  | 0.5 nM |  |  |  |
| COc1cc2c(NS(=O)(=O)c3c(OC)cc(-c4cccnc4)cc3OC)noc2cc1Nc1cc(C2CC2)n[nH]1 [Example 07, N-{6-[(3-cyclopropyl-1H-pyrazol-5-yl)amino]-5-methoxy-1,2-benzoxazol-3-yl}-2,6-dimethoxy-4-(pyridin-3-yl)benzene-1-sulfonamide] | 53.6 nM | 457 nM | 4.2 nM | 0.6 nM |  |  |  |
| COc1cc2c(NS(=O)(=O)c3c(OC)cc(-c4ncco4)cc3OC)noc2cc1Nc1cc(C2CC2)n[nH]1 [Example 08, N-{6-[(3-cyclopropyl-1H-pyrazol-5-yl)amino]-5-methoxy-1,2-benzoxazol-3-yl}-2,6-dimethoxy-4-(1,3-oxazol-2-yl)benzene-1-sulfonamide] | 46.9 nM | 1620 nM | 12.8 nM | 1.2 nM |  |  |  |
| COc1cccc(OC)c1S(=O)(=O)Nc1noc2cc(NC3CCC3)cc(OC)c12 [Example 10, N-[6-(cyclobutylamino)-4-methoxy-1,2-benzoxazol-3-yl]-2,6-dimethoxybenzene-1-sulfonamide] | 11800 nM | 11500 nM | 727 nM | 3.1 nM |  |  |  |
| COc1cccc(OC)c1S(=O)(=O)Nc1noc2cc(N[C@H]3CCOC3)cc(OC)c12 [Example 14, 2,6-dimethoxy-N-(4-methoxy-6-{[(3S)-oxolan-3-yl]amino}-1,2-benzoxazol-3-yl)benzene-1-sulfonamide] | 44900 nM | > 16300 nM | > 2340 nM | 10.1 nM |  |  |  |
| COc1cc2c(NS(=O)(=O)c3cc(C)c(C)cc3OC)noc2cc1Nc1cc[nH]n1 [Example 25, 2-methoxy-N-{5-methoxy-6-[(1H-pyrazol-3-yl)amino]-1,2-benzoxazol-3-yl}-4,5-dimethylbenzene-1-sulfonamide] | 121 nM | 446 nM |  | 0.8 nM |  |  |  |
| COc1cc2c(NS(=O)(=O)c3c(OC)cc(C4CCOCC4)cc3OC)noc2cc1Nc1cc(C2CC2)n[nH]1 [Example 265, N-{6-[(3-cyclopropyl-1 H-pyrazol-5-yl)amino]-5-methoxy-1,2-benzoxazol-3-yl}-2,6-dimethoxy-4-(oxan-4-yl)benzene-1-sulfonamide] |  |  |  |  | 918 nM | 2.3 nM | 0.3 nM |
| COCc1cc(OC)c(S(=O)(=O)Nc2noc3cc(Nc4cc(C5CC5)n[nH]4)c(OC)cc23)c(OC)c1 [Example 270, N-{6-[(3-cyclopropyl-1 H-pyrazol-5-yl)amino]-5-methoxy-1,2-benzoxazol-3-yl}-2,6-dimethoxy-4-(methoxymethyl)benzene-1-sulfonamide] |  |  |  |  | 1790 nM | 13.5 nM | 1.3 nM |
| COc1cc2c(NS(=O)(=O)c3c(OC)cc(C(C)(C)OC)cc3OC)noc2cc1Nc1cc(C2CC2)n[nH]1 [Example 271, N-{6-[(3-cyclopropyl-1H-pyrazol-5-yl)amino]-5-methoxy-1,2-benzoxazol-3-yl}-2,6-dimethoxy-4-(2-methoxypropan-2-yl)benzene-1-sulfonamide] |  |  |  |  | 1010 nM | 7 nM | 1 nM |
